# Reference: US10696972B2, “Method for improving learning” (St. Jude Children's Research Hospital, Inc., priority 2015, dated 2020)
# How the values were obtained:
# [1] = system: A1R mRNA; assay: Cortical map plasticity in the ACx after passive tone exposure, A1R shRNA knock-down; format: in vivo, mouse; conditions: adult WT mice, shRNA injected into auditory thalamus (MGv), passive exposure to a 9.8-kHz tone
# Experimental: (§1) Mice were housed in ventilated sound-proof chambers with ad libitum food and water and maintained on a 12:12 hour light:dark cycle. Mice were exposed to continuous sound stimulation for 5 to 14 days, consisting of repeated trains of tones. Each train consisted of 5 tones delivered at 5 Hz. A pure tone of certain frequencies (7 kHz, 7.9 kHz, 9.8 kHz, 11.4 kHz, or 16.4 kHz) was used. The tone duration was 50 ms with 5-ms cosine onset/offset ramps at 70-dB sound pressure level (SPL). Trains were separated by 1 s. Naïve (nonexposed) mice were housed in a similar fashion but received no sound stimulation.
# Mice were anesthetized with sodium pentobarbital (50 mg/kg) and chlorprothixene (0.2 mg) followed by supplemental doses of sodium pentobarbital (15-25 mg/kg supplements as needed). Spike responses to sound stimulation were recorded from the primary (A1) ACx (depth, 350-420 μm from the pial surface) with Epoxylite-coated tungsten microelectrodes (2.0 MΩ at 1 kHz; FHC, Brunswick, Me.). Frequency response areas (FRAs) were measured with randomly presented tone pips of varying frequency (4.0-44.6 kHz in 0.1-octave increments, 20-ms duration, 5-ms raised cosine onset/offset ramps, 500-ms intertone interval) and level (0- to 70-dB SPL in 10-dB increments). Tones were generated by an electrostatic speaker [Tucker-Davis Technologies (TDT), Alachua, Fla.], which was placed 10 cm from the contralateral ear of the mouse. The ipsilateral ear was plugged with agar. Spike responses to tone pips were amplified with an RA4PA fiber optic preamplifier, filtered (high pass=250 Hz, low pass=5000 Hz), and digitized with an RZ6 real-time processor (TDT). The threshold for spike detection was set at a signal-to-noise ratio of 3:1. TDT System 3 software (OpenEx) controlled both sound stimulus generation and response acquisition and was used for data storage. Cortical maps in the A1 were generated from FRAs measured at 30 to 40 sites per mouse, each separated by 50 to 100 μm. FRAs were analyzed with TDT System 3 software (Open Explorer) for characteristic frequencies (CFs) collated in bins of 0.22 octaves. […]
# [2] = system: Nt5e; assay: Cortical map plasticity in the ACx after passive tone exposure, Nt5e shRNA knock-down; format: in vivo, mouse; conditions: mature WT mice, shRNA injected into auditory thalamus, exposed to 11.4 kHz
# Experimental: as §1
# Mice were anesthetized with sodium pentobarbital (50 mg/kg) and chlorprothixene (0.2 mg) followed by supplemental doses of sodium pentobarbital (15-25 mg/kg supplements as needed). Spike responses to sound stimulation were recorded from the primary (A1) ACx (depth, 350-420 μm from the pial surface) with Epoxylite-coated tungsten microelectrodes (2.0 MΩ at 1 kHz; FHC, Brunswick, Me.). Frequency response areas (FRAs) were measured with randomly presented tone pips of varying frequency (4.0-44.6 kHz in 0.1-octave increments, 20-ms duration, 5-ms raised cosine onset/offset ramps, 500-ms intertone interval) and level (0- to 70-dB SPL in 10-dB increments). […] Cortical maps in the A1 were generated from FRAs measured at 30 to 40 sites per mouse, each separated by 50 to 100 μm. […]
Substance,ACx map plasticity [1],percentage of sites with a CF of 11.4 kHz compared to naïve mice [2]
"A1R shRNA (123): shRNA against A1R mRNA, lentivector; coding DNA 5′-CGATGCTACCTTCTGCTTCATCGTATCCC-3′ (SEQ ID NO: 10)",sufficient to induce ACx map plasticity,–
"A1R shRNA (789): shRNA against A1R mRNA, lentivector; coding DNA 5′-CCAGAAACCCAGCATCCTCATCTACATTG-3′ (SEQ ID NO: 11)",sufficient to induce ACx map plasticity,–
"Nt5e shRNA (1264): shRNA against Nt5e, lentivector; coding DNA 5′-ACATTTGACCTCGTCCAATTAAAAGGGTC-3′ (SEQ ID NO: 12)",–,significantly larger percentage of sites with a CF of 11.4 kHz
"Nt5e shRNA (1366): shRNA against Nt5e, lentivector; coding DNA 5′-GGAATCCATGTGGTGTACGATATTAACCG-3′ (SEQ ID NO: 13)",–,significantly larger percentage of sites with a CF of 11.4 kHz
scrambled (control) shRNA: scrambled control shRNA; coding DNA 5′-TACGTCCAAGGTCGGGCAGGAAGA-3′ (SEQ ID NO: 9) [reference compound],no cortical map plasticity,–
